# Literature values, collected in paper PMC10287555, “Camonsertib in DNA damage response-deficient advanced solid tumors: phase 1 trial results” (Nature Medicine, 2023).
# Tested on: advanced solid tumors
# Conditions: combination with gemcitabine; cited from earlier work
smiles,measurement,value
CNCc1ccc(-c2cc(-c3nc(-c4ccc(S(=O)(=O)C(C)C)cc4)cnc3N)on2)cc1 [berzosertib],Response rate in TMB-H NSCLC versus patients without elevated TMB,higher response rates
